Ends that are not written are not given here.
Tests used:
[1] = tested on: vasodilation evoked by capsaicin; assay: Capsaicin-evoked vasodilation in pig nasal mucosa in vivo
Procedure: Experiments were performed on pigs of both sexes (body weight 18-25 kg). All animals were premedicated with atropine (0.05 mg/kg) and ketamine (20 mg/kg i.m.). They were anesthesized with thiopentone (5 mg/kg i.v.). After tracheostomy, animals were intubated and artificially ventilated by a volume regulated ventilator. During surgery, animals were given a continuous i.v. infusion of Ringer's solution, pancuronium bromide (0.25 mg/kg) and heparin. […] Catheters were placed in the femoral artery for systemic blood pressure and heart rate monitoring and in the femoral vein for thiopentone, heparin and fluid administration (300 ml/hr). The contralateral femoral vein was canulated for blood sampling. […] Selective recording of the nasal arterial blood flow was performed with a Transonic flow probe (probe 2.4RB143) of 2.4 mm diameter placed around the sphenopalatine artery. The flow probe was connected to a T202S ultrasonic blood flowmeter. All the arterial branches situated downstream of the flow probe were ligated and cut except for the superficial temporal artery which was cannulated with a PE 90 catheter for infusions or injections.
(§2) Variations in the area under the curve (AUC) of the sphenopalatine artery vascular resistance (Vr), derived from both mean arterial blood pressure and systemic blood flow curves, were analyzed over time. Durations of the responses of the vascular resistance were compared and all results were expressed in percent of baseline. Vascular parameters were recorded simultaneously using a 6 pen trace recorder.
(§3) All animals were intranasally administered DPIV (50 μg, 26.5 pmoles/kg), subjected to sympathetic nerve stimulation (SNS, 15 V, 5 ms, 10 Hz for 2 minutes) and then infused with histamine (0.1-25 μg), capsacin (0.01-25 μg), bradykinin (0.001-10 μg), SP or its C-terminal fragment SP 5-11, DPPIV, or NK1 antagonist L733060 in the superficial temporal artery under controlled conditions. In each case, the vascular response of the animal was measured. This entire procedure was then repeated after local i.a. pretreatment with the alpha-adrenergic receptor antagonist phenoxybenzanime (1 mg/kg).

[2] = tested on: histamine vasodilatory effects; assay: Histamine-evoked vasodilation in pig nasal mucosa in vivo; settings: no DPPIV
Procedure: (§1) Each experiment lasted approximately 8 hours.

[3] = Basal vascular parameters in the anaesthetised pig in vivo (blood flow, heart rate, MAP, vascular resistance)
Procedure: as §1
The basal blood flow in the internal maxillary artery of the pig under control conditions was 4.92+/−0.7 ml min^−1 kg^−1. After section of the sympathetic nerves on the left side, the homolateral nasal arterial flow was 6.1+/−0.26 ml min^−1 kg^−1 (representing a 19.34% +/−4.3% increase). The mean arterial blood pressure (MAP) was not modified by the section of the sympathetic nerves. […] Sympathetic nerve stimulation at 10 Hz for 5 minutes reduced the blood flow in the maxillary artery from 4.92+/−0.7 ml min^−1 kg^−1 to 1.40+/−0.47 ml min^−1 kg^−1, representing an […] of 71.5% and lasting more than 6 minutes. The i.a. infusion of phenoxybenzamine induced a MAP reduction of 10+/−2%.

[4] = tested on: SP-evoked vasodilatory response; assay: Modulation of SP-evoked vasodilation in pig nasal mucosa in vivo; settings: pretreatment 114 nmoles/kg; all doses of SP used except 100 ng
Procedure: Experiments were performed on pigs of both sexes (body weight 18-25 kg). All animals were premedicated with atropine (0.05 mg/kg) and ketamine (20 mg/kg i.m.). They were anesthesized with thiopentone (5 mg/kg i.v.). After tracheostomy, animals were intubated and artificially ventilated by a volume regulated ventilator. During surgery, animals were given a continuous i.v. infusion of Ringer's solution, pancuronium bromide (0.25 mg/kg) and heparin. Each experiment lasted approximately 8 hours. Catheters were placed in the femoral artery for systemic blood pressure and heart rate monitoring and in the femoral vein for thiopentone, heparin and fluid administration (300 ml/hr). The contralateral femoral vein was canulated for blood sampling. […] Selective recording of the nasal arterial blood flow was performed with a Transonic flow probe (probe 2.4RB143) of 2.4 mm diameter placed around the sphenopalatine artery. The flow probe was connected to a T202S ultrasonic blood flowmeter. […]
Variations in the area under the curve (AUC) of the sphenopalatine artery vascular resistance (Vr), derived from both mean arterial blood pressure and systemic blood flow curves, were analyzed over time. […] Vascular parameters were recorded simultaneously using a 6 pen trace recorder. […]

[5] = tested on: sphenopalatine vascular resistance; assay: Vasodilator dose-response of SP and SP 5-11 in pig in vivo; settings: for reduction in SVR: before DPPIV
Procedure: Experiments were performed on pigs of both sexes (body weight 18-25 kg). All animals were premedicated with atropine (0.05 mg/kg) and ketamine (20 mg/kg i.m.). They were anesthesized with thiopentone (5 mg/kg i.v.). After tracheostomy, animals were intubated and artificially ventilated by a volume regulated ventilator. During surgery, animals were given a continuous i.v. infusion of Ringer's solution, pancuronium bromide (0.25 mg/kg) and heparin. Each experiment lasted approximately 8 hours. Catheters were placed in the femoral artery for systemic blood pressure and heart rate monitoring and in the femoral vein for thiopentone, heparin and fluid administration (300 ml/hr). The contralateral femoral vein was canulated for blood sampling. Surgical preparation of the internal maxillary artery was done in accordance with Lacroix (Acta Physiol. Scand. 136:1-63 (1989)). Selective recording of the nasal arterial blood flow was performed with a Transonic flow probe (probe 2.4RB143) of 2.4 mm diameter placed around the sphenopalatine artery. The flow probe was connected to a T202S ultrasonic blood flowmeter. All the arterial branches situated downstream of the flow probe were ligated and cut except for the superficial temporal artery which was cannulated with a PE 90 catheter for infusions or injections.
as §2, §3
Therefore, the same animal was used to perform dose-response curves with SP both before and after pretreatment with DPPIV. A dose-response curve for duration of vasodilation and area under the curve was constructed using doses of SP in the range of 1 pg to 0.1 μg. […] The same animals received 50 μg (530 pmoles) of DPPIV and similar doses of SP were injected. […] Since DPPIV cleaves SP into SP 5-11, experiments were conducted to determine whether SP 5-11 is also capable of decreasing SVR.

[6] = SNS and PBZ pretreatment, no DPPIV, capsaicin 8.2×10^−08 moles

For `COc1cc(CNC(=O)CCCCC=CC(C)C)ccc1O` [Capsaicin, 8-methyl-N-vanillyl-6-nonenamide], the “effect of capsaicin injection on Vr” value ([1]; following SNS, similar to control conditions) was “dose-dependent decrease of Vr”.
With `NCCc1c[nH]cn1` [Histamine] the “reduction in duration of histamine effect vs control” value ([2]; histamine i.a. 1.4×10^−07 moles following SNS 10 Hz 5 minutes) was 32% and the “reduction in duration of histamine effect vs control” value ([2]; histamine i.a. 5.4×10^−09 moles following SNS 10 Hz 5 minutes) was 33%.
For `FC(F)(F)c1cc(CO[C@H]2CCCN[C@H]2c2ccccc2)cc(C(F)(F)F)c1` [L-733060], the “vascular effect of the antagonist” value ([3]; pretreatment with 114 nmoles/kg) was “vasoconstrictive effect” and the “blockade of SP-induced decrease in SVR” value [4] was “clear inhibition of the SP effect”.
With `CC(COc1ccccc1)N(CCCl)Cc1ccccc1` (centres unmarked) [phenoxybenzamine] the MAP reduction ([3]; i.a. infusion of phenoxybenzamine) was 10+/−2%, the “reduction of AUC of capsaicin effect” value [1, 6] was 26.6% and the “reduction of duration of vasodilation evoked by capsaicin” value [1, 6] was 39.9%. For the same compound, the “variation of vasodilatory effect of capsaicin” value ([1]; after SNS and PBZ pretreatment, any doses, no DPPIV) was “no significant variation”.
With “SP: substance P, bioactive peptide released by sensory neurons; NK1 agonist” the “reduction in SVR” value ([5]; SP 100 pg) was 13.1%, the “reduction in SVR” value ([5]; SP 1 ng) was 14.9% and the “potency of SP relative to SP 5-11 as a vasodilator” value ([5]; based on molarity) was 200 fold. It also gave a vasodilation ([5]; local intraarterial administration of 1 pg SP) of 15.1% +/−3.3% and a vasodilation ([5]; local intraarterial administration of 100 ng SP) of 37.3% +/−3.3%.
For “SP 5-11: C-terminal fragment of SP produced by DPPIV cleavage (QQFFGLM; ends and bridges not checked; UniProt P20366 62-68, looked up, fragment)”, the “decrease in SVR” value ([5]; SP 5-11 10 pg) was 5%, the “decrease in SVR” value ([5]; SP 5-11 1 μg) was 35% and the “SP 5-11 less potent than SP at causing vasodilation” value ([5]; pig, in vivo) was “at least 100 fold”.

— US6337069B1, “Method of treating rhinitis or sinusitis by intranasally administering a peptidase” (B.M.R.A. Corporation B.V., priority 2001, dated 2002)
